Test results: paper PMC10065799, “High-throughput profiling of sequence recognition by tyrosine kinases and SH2 domains using bacterial peptide display” (eLife, 2023)

How the values were obtained:
EPHB2 kinase domain = assay: pTyr-Var library bacterial peptide display kinase screen (enrichment scores); format: biochemical, human; conditions: mean of log2 enrichment of reference peptide, n = 4
MERTK kinase domain = assay: as above; format: biochemical, human; conditions: for mean of log2(reference): mean of log2 enrichment of reference peptide, n = 4
AncSZ kinase domain = assay: as above; format: biochemical; conditions: for AncSZ mean of log2(enrichment): mean of log2 of enrichment over R1-R5; for AncSZ enrich. R1 / AncSZ enrich. R3 / AncSZ enrich. R4 / AncSZ enrich. R5: pTyr-Var library, enrichment score; for AncSZ enrich. R1: replicate 1; for AncSZ enrich. R3: replicate 3; for AncSZ enrich. R4: replicate 4; for AncSZ enrich. R5: replicate 5
Fyn kinase domain = assay: as above; format: biochemical, human; conditions: for Fyn mean of log2(enrichment): mean of log2 of enrichment over R1-R4; for Fyn enrich. R1 / Fyn enrich. R3 / Fyn enrich. R4: pTyr-Var library, enrichment score; for Fyn enrich. R1: replicate 1; for Fyn enrich. R3: replicate 3; for Fyn enrich. R4: replicate 4
EPHB1 kinase domain = assay: as above; format: biochemical, human; conditions: mean of log2 enrichment of reference peptide, n = 4
Jak2 = assay: as above; format: biochemical, human; conditions: for Jak2 mean of log2(enrichment): mean of log2 of enrichment over R1-R3; for Jak2 enrich. R1 / Jak2 enrich. R3: pTyr-Var library, enrichment score; for Jak2 enrich. R1: replicate 1; for Jak2 enrich. R3: replicate 3
Fer kinase domain = assay: as above; format: biochemical, mouse; conditions: for Fer mean of log2(enrichment): mean of log2 of enrichment over R1-R4; for Fer enrich. R1 / Fer enrich. R3 / Fer enrich. R4: pTyr-Var library, enrichment score; for Fer enrich. R1: replicate 1; for Fer enrich. R3: replicate 3; for Fer enrich. R4: replicate 4
Grb2 SH2 domain = assay: pTyr-Var library SH2 domain screen with SH2-dynabeads (enrichment scores); conditions: R1-R3
Hck kinase domain = assay: pTyr-Var library bacterial peptide display kinase screen (enrichment scores); format: biochemical, human; conditions: for Hck mean of log2(enrichment): mean of log2(variant) / mean of log2(reference), R1-R4; for Hck enrich. R1 / Hck enrich. R3 / Hck enrich. R4: pTyr-Var library, enrichment score; for Hck enrich. R1: replicate 1; for Hck enrich. R3: replicate 3; for Hck enrich. R4: replicate 4
Fes = assay: as above; format: biochemical; conditions: mean of log2 of enrichment over R1-R6
c-Src SH2 domain = c-Src SH2 domain (Homo sapiens, UniProt P12931); assay: pTyr-Var library SH2 domain screen with SH2-dynabeads (enrichment scores); conditions: mean of log2 enrichment of reference peptide, R1-R3; sheet c-Src
c-Src kinase domain [1] = target: T1, c-Src kinase domain (Homo sapiens, UniProt P12931); assay: pTyr-Var library bacterial peptide display kinase screen (enrichment scores); format: biochemical; conditions: for c-Src mean of log2(enrichment): mean of log2 of enrichment over R1-R4; for c-Src enrich. R1 / c-Src enrich. R3 / c-Src enrich. R4: pTyr-Var library, enrichment score; for c-Src enrich. R1: replicate 1; for c-Src enrich. R3: replicate 3; for c-Src enrich. R4: replicate 4
FGFR1 kinase domain = assay: as above; format: biochemical, human; conditions: n = 5
SHP2 C-SH2 domain = assay: pTyr-Var library SH2 domain screen with SH2-dynabeads (enrichment scores); conditions: R1-R3
FGFR3 kinase domain = assay: pTyr-Var library bacterial peptide display kinase screen (enrichment scores); format: biochemical, human; conditions: n = 5
c-Abl kinase domain [2] = target: T2, c-Abl kinase domain (Mus musculus, UniProt P00520); assay: as above; format: biochemical; conditions: for c-Abl mean of log2(enrichment): mean of log2 of enrichment over R1-R4; for c-Abl enrich. R1 / c-Abl enrich. R3 / c-Abl enrich. R4: pTyr-Var library, enrichment score; for c-Abl enrich. R1: replicate 1; for c-Abl enrich. R3: replicate 3; for c-Abl enrich. R4: replicate 4
T2 sequence (P00520 242-493 limits assumed): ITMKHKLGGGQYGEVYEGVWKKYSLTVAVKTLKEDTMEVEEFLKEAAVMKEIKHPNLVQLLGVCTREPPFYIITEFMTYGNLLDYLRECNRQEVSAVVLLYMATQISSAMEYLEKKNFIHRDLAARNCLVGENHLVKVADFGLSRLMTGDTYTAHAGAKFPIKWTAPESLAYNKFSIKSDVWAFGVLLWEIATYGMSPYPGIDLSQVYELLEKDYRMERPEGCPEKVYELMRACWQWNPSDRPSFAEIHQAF

c-Src kinase domain [3] = target: T1, c-Src kinase domain; assay: ADP-Quest continuous fluorimetric kinase assay (Michaelis-Menten parameters and initial rates); format: biochemical
c-Abl kinase domain [4] = target: T2, c-Abl kinase domain; assay: as above; format: biochemical; conditions: peptide 100 μM, kinase 10–50 nM; Figure 2C
[5] = ADP-Quest assay, c-Src kinase domain 10 nM, 100 μM ATP, 37 °C, three to five replicates, error = standard error of global Michaelis-Menten fit

| Substance | mean of log2(reference) (EPHB2 kinase domain) | mean of log2(reference) (MERTK kinase domain) | AncSZ mean of log2(enrichment) (AncSZ kinase domain) | AncSZ enrich. R1 (AncSZ kinase domain) | AncSZ enrich. R3 (AncSZ kinase domain) | AncSZ enrich. R4 (AncSZ kinase domain) | AncSZ enrich. R5 (AncSZ kinase domain) | Fyn mean of log2(enrichment) (Fyn kinase domain) | Fyn enrich. R1 (Fyn kinase domain) | Fyn enrich. R3 (Fyn kinase domain) | Fyn enrich. R4 (Fyn kinase domain) | mean of log2(reference) (EPHB1 kinase domain) | Jak2 mean of log2(enrichment) (Jak2) | Jak2 enrich. R1 (Jak2) | Jak2 enrich. R3 (Jak2) | Fer mean of log2(enrichment) (Fer kinase domain) | Fer enrich. R1 (Fer kinase domain) | Fer enrich. R3 (Fer kinase domain) | Fer enrich. R4 (Fer kinase domain) | mean of log2(reference) (Grb2 SH2 domain) | also measured |
| --- | --- | --- | --- | --- | --- | --- | --- | --- | --- | --- | --- | --- | --- | --- | --- | --- | --- | --- | --- | --- | --- |
| TTGLIYIGSHD [AASDH_Y870] | -0.8783 | -1.687 | -0.4681 | 0.7227 | 0.6145 | 0.7736 | 0.7032 | -1.48 | 0.4689 | 0.3674 | 0.214 | -0.5976 | -0.485 | 0.7507 | 0.724 | -1.298 | 0.3587 | 0.5035 | 0.5633 | 0.04072 | Hck mean of log2(enrichment) (Hck kinase domain): 0.4597; Hck enrich. R1 (Hck kinase domain): 0.6399; Hck enrich. R3 (Hck kinase domain): 0.4036; Hck enrich. R4 (Hck kinase domain): 0.2897; Fes mean of log2(enrichment) (Fes): -0.4107; mean of log2(reference) (c-Src SH2 domain): -0.7916; c-Src mean of log2(enrichment) (c-Src kinase domain [1]): -1.294; c-Src enrich. R1 (c-Src kinase domain [1]): 0.3921; c-Src enrich. R3 (c-Src kinase domain [1]): 0.3853; c-Src enrich. R4 (c-Src kinase domain [1]): 0.4379; mean of log2(reference) (FGFR1 kinase domain): -1.189; mean of log2(reference) (SHP2 C-SH2 domain): -0.7271; mean of log2(reference) (FGFR3 kinase domain): -0.6492; c-Abl mean of log2(enrichment) (c-Abl kinase domain [2]): -1.045; c-Abl enrich. R1 (c-Abl kinase domain [2]): 0.5107; c-Abl enrich. R3 (c-Abl kinase domain [2]): 0.4932; c-Abl enrich. R4 (c-Abl kinase domain [2]): 0.3951 |
| GMAHNYRNSSQ [AASS_Y188] | -1.13 | -1.316 | -0.7891 | 0.6022 | 0.4422 | 0.5318 | 0.777 | -1.328 | 0.4068 | 0.5016 | 0.6969 | -2.084 | -1.234 | 0.5584 | 0.3848 | -1.39 | 0.41 | 0.4208 | 0.3128 | -0.5728 | ref. mean (MERTK kinase domain; pTyr-Var library, reference peptide enrichment, mean of n = 4): 0.4184; Hck mean of log2(enrichment) (Hck kinase domain): 0.4135; Hck enrich. R1 (Hck kinase domain): 0.473; Hck enrich. R3 (Hck kinase domain): 0.3667; Hck enrich. R4 (Hck kinase domain): 0.3337; Fes mean of log2(enrichment) (Fes): -1.191; mean of log2(reference) (c-Src SH2 domain): -1.119; c-Src mean of log2(enrichment) (c-Src kinase domain [1]): -1.404; c-Src enrich. R1 (c-Src kinase domain [1]): 0.429; c-Src enrich. R3 (c-Src kinase domain [1]): 0.2705; c-Src enrich. R4 (c-Src kinase domain [1]): 0.4776; mean of log2(reference) (FGFR1 kinase domain): -1.437; mean of log2(reference) (SHP2 C-SH2 domain): -0.8121; mean of log2(reference) (FGFR3 kinase domain): -1.231; c-Abl mean of log2(enrichment) (c-Abl kinase domain [2]): -1.694; c-Abl enrich. R1 (c-Abl kinase domain [2]): 0.3586; c-Abl enrich. R3 (c-Abl kinase domain [2]): 0.2586; c-Abl enrich. R4 (c-Abl kinase domain [2]): 0.2717 |
| Ac-GPDECIYDMFPFKKKG-NH2 [Src Consensus, c-Src consensus substrate peptide from X5-Y-X5 screen] |  |  |  |  |  |  |  |  |  |  |  |  |  |  |  |  |  |  |  |  | Km (c-Src kinase domain [3]; [5]): 196 ± 38 µM; kcat (c-Src kinase domain [3]; [5]): 4.9±0.4 s^–1; phosphorylation of consensus peptide by c-Src (initial rate relative to cognate consensus) (c-Src kinase domain [3]; high concentration: peptide 100 μM, kinase 10–50 nM, Figure 2C): selective; phosphorylation of consensus peptide by c-Abl (initial rate relative to cognate consensus) (c-Abl kinase domain [4]): efficiently phosphorylated |
